Legend:
[1] = biological target: CaMKII F89G binding to GluN2B (Homo sapiens, UniProt Q9UQM7, F89G); assay: In vitro binding of CaMKII F89G to GluN2B; settings: NM-PP1
From the text: This conclusion also predicts that the LTP stimulus-induced movement of CaMKII to excitatory synapses should be (i) impaired in the CaMKII F89G mutant; but (ii) normalized by pharmacogenetic rescue with NM-PP1. Indeed, both predictions were observed experimentally (FIGS. 4D-4E).
CaMKII binding to GluN2B in vitro. CaMKII/GluN2B binding assays were done as described. Briefly, GST-GluN2B-c-tail (GST-2BC) was immobilized on anti-GST-antibody-coated microtiter plates (Thermo Scientific), blocked for 30 min with 5% BSA, and then overlaid with […] CaMKII (subunit concentration) in PIPES-buffered saline (pH 7.2) containing: 2 mM Ca^2+, 1 μM CaM, 1 mM Mg^2+, 0.1% BSA, 0.1% Tween-20 for 20 min at room temperature. Addition of 1 mM ADP, 1 mM ATP, 10 μM AS283 (or AS105) or […] NM-PP1 was added accordingly (see figure legends). After extensive washes in buffer containing 1 mM EGTA, GST-2BC and bound CaMKII was eluted for 10 min in SDS-loading buffer at 95° C. Bound CaMKII was measured via immunoblot.

[2] = system: LTP in CaMKIIα knockout slices; assay: LTP induction in slices of CaMKIIα knockout mice injected with AAV-mScarlet (mock) or AAV-mScarlet-CaMKII F89G; type: cell-based, mouse
Method: Specifically, in one exemplary method, pharmacogenetic rescue of LTP with NM-PP1 was tested in hippocampal slices expressing the CaMKII F89G mutant. For this purpose, mScarlet-labeled CaMKII F89G mutant were re-expressed in the hippocampal CA1 region of CaMKIIα knockout mice. This was done by stereotactic injection of a packaged adeno-associated virus (AAV) construct in which the expression of either mScarlet alone or the mScarlet-labeled mutant CaMKII is controlled by the CaMKIIα promoter (FIG. 5A). After 5 weeks of expression, acute slices were prepared and evaluated for proper localization of expression by imaging of mScarlet fluorescence (FIG. 5A and FIG. 11A). […] As expected, NM-PP1 had no effect on the residual LTP in these control slices (FIGS. 5B-5C and FIG. 11B). By contrast, in slices expressing the CaMKII F89G mutant, LTP was completely abolished (FIGS. 5D-5E), consistent with residual LTP being further suppressed by the dominant negative effect (on the remaining minor CaMKIIβ isoform in the CaMKIIα knockout) that is exerted by a CaMKII mutant with impaired ATP-binding and thereby is deficient in both activity and GluN2B binding. […] Thus, two independent lines of pharmacogenetic evidence topple current dogma by directly supporting the conclusion that LTP induction is linked to structural rather than enzymatic functions of CaMKII.
AAV Production. […]

CaMKII F89G binding to GluN2B, sequence (Q9UQM7 whole entry F89G): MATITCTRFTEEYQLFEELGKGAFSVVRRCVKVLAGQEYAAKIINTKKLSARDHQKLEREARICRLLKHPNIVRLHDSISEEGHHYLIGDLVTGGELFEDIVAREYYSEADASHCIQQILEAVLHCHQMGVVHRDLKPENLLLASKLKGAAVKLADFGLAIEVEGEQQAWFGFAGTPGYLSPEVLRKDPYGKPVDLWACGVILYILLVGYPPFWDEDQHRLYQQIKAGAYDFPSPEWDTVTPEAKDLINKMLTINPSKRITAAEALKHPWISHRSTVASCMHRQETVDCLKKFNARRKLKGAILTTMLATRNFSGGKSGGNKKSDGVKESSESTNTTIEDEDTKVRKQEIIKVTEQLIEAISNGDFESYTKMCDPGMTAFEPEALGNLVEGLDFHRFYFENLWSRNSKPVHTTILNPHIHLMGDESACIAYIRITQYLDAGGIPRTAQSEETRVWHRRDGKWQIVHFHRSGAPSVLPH
CaMKII F89G binding to GluN2B, sequence (Q13224 836-1484 partner limits assumed): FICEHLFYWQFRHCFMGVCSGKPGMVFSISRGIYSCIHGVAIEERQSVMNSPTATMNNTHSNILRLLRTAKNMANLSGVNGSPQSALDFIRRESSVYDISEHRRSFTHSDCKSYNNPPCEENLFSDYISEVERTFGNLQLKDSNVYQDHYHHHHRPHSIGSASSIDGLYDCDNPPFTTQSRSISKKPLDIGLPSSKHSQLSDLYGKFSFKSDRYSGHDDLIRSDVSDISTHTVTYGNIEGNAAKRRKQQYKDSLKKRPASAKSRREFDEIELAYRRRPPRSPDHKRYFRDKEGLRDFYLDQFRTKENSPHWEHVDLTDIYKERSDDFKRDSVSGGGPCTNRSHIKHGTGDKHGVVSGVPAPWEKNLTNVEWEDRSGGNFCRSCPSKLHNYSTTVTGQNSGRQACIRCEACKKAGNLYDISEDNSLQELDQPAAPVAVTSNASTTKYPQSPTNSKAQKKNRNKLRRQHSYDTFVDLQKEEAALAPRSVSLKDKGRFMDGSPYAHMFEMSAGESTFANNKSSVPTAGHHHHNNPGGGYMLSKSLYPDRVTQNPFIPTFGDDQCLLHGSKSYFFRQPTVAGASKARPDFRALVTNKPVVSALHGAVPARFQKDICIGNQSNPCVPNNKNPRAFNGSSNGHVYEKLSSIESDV

SMILES: CC(C)(C)n1nc(Cc2cccc3ccccc23)c2c(N)ncnc21 [NM-PP1]
- binding of CaMKII F89G to GluN2B in vitro [1]: enabled binding of CaMKII F89G to GluN2B also in vitro
- residual LTP in CaMKIIα knockout slices expressing mScarlet control ([2]; NM-PP1): no effect
- LTP induction in CaMKIIα knockout slices expressing CaMKII F89G ([2]; NM-PP1 10 μM): LTP induction was enabled
